53 compounds from the supplement of paper PMC12137928 can be followed below.

Molecules are shown by their SMILES. Structures can show the parent of a compound that is named as a salt. Some results are limits rather than exact numbers.

The test system of the test is HCT116. Conditions: 72 h. In a few lines:
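Each well of the 1536-well plates received 250 HCT116 cells, which attached over 5 h. Luminescence was measured with CellTiter-Glo, scaled with vehicle as 0% and positive control as -100%, and pattern-corrected. A four-parameter Hill fit yielded IC50 and maximal efficacy.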

With `Cc1ccc(C(=O)Oc2ccc(C(O)CNC(C)(C)C)cc2OC(=O)c2ccc(C)cc2)cc1` (stereo unspecified) [Bitolterol], the IC50 cell viability reads like this: (ICRF193 0 nM) more than 45.8 µM; (ICRF193 200 nM) more than 45.8 µM.
`COC(=O)N[C@H](C(=O)N1CCC[C@H]1c1nc(-c2ccc3c(c2)O[C@@H](c2ccccc2)n2c-3cc3cc(-c4c[nH]c([C@@H]5CCCN5C(=O)[C@@H](NC(=O)OC)C(C)C)n4)ccc32)c[nH]1)C(C)C` [Elbasvir]: the IC50 cell viability (ICRF193 0 nM) is more than 45.8 µM and the IC50 cell viability (ICRF193 200 nM) was more than 45.8 µM.
In the case of `Nc1ncnc2c1ncn2[C@@H]1O[C@H](COP(=O)(O)OP(=O)(O)OP(=O)(O)O)[C@@H](O)[C@H]1O` [ATP (disodium salt)], the IC50 cell viability was more than 45.8 µM (ICRF193 0 nM) and more than 45.8 µM (ICRF193 200 nM).
Turning to `O=P(O)(O)C(Cl)(Cl)P(=O)(O)O` [Clodronate], the IC50 cell viability is more than 45.8 µM (ICRF193 0 nM) and more than 45.8 µM (ICRF193 200 nM).
On to `COc1cc(CC2NCCc3cc(O)c(O)cc32)cc(OC)c1OC` (stereo unspecified) [Trimethoquinol], for which the IC50 cell viability by setting is: (ICRF193 0 nM) more than 45.8 µM; (ICRF193 200 nM) more than 45.8 µM.
For `CO[C@@H]1[C@@H](O[C@@H]2O[C@H](C)[C@@H](O[C@H]3C[C@@](C)(O)[C@@H](O)[C@H](C)O3)[C@H](N(C)C)[C@H]2O)[C@@H](CC=O)C[C@@H](C)[C@@H](O[C@H]2CC[C@H](N(C)C)[C@@H](C)O2)/C=C/C=C/C[C@@H](C)OC(=O)C[C@H]1OC(C)=O` [Spiramycin II], the IC50 cell viability reads like this: (ICRF193 0 nM) more than 45.8 µM; (ICRF193 200 nM) more than 45.8 µM.
In turn, `OCCOCCOCCO` [Triethylene glycol] came in with an IC50 cell viability (ICRF193 0 nM) of more than 45.8 µM and an IC50 cell viability (ICRF193 200 nM) of more than 45.8 µM.
Regarding `CC(=O)OCC(=O)[C@@]1(O)CC[C@H]2[C@@H]3CCC4=CC(=O)C=C[C@]4(C)[C@H]3[C@@H](O)C[C@@]21C` [Prednisolone acetate], the IC50 cell viability is more than 45.8 µM (ICRF193 0 nM) and more than 45.8 µM (ICRF193 200 nM).
`Cc1nc(C2CCCCC2)c(-c2ccc(S(N)(=O)=O)c(F)c2)o1` [Tilmacoxib]: the IC50 cell viability is more than 45.8 µM (ICRF193 0 nM) and more than 45.8 µM (ICRF193 200 nM).
In the case of `CS(=O)(=O)Nc1ccc([N+](=O)[O-])cc1Oc1ccccc1` [Nimesulide], the IC50 cell viability reads like this: (ICRF193 0 nM) more than 45.8 µM; (ICRF193 200 nM) more than 45.8 µM.
As to `C[C@@H](O)[C@H]1C(=O)N2C(C(=O)O)=C(S[C@@H]3CN[C@H](CNS(N)(=O)=O)C3)[C@H](C)[C@H]12` [Doripenem], the IC50 cell viability is, setting by setting: (ICRF193 0 nM) more than 45.8 µM; (ICRF193 200 nM) more than 45.8 µM.
In the case of `O=C(O[C@H]1C[C@H]2CC[C@@H](C1)[N+]21CCCC1)C(O)(c1ccccc1)c1ccccc1` [Trospium chloride], the IC50 cell viability is, setting by setting: (ICRF193 0 nM) more than 45.8 µM; (ICRF193 200 nM) more than 45.8 µM.
For `C[C@@H]1C[C@H]2[C@@H]3CCC4=CC(=O)C=C[C@]4(C)[C@@]3(F)[C@@H](O)C[C@]2(C)[C@@]1(O)C(=O)CO` [Dexamethasone], the IC50 cell viability is, setting by setting: (ICRF193 0 nM) more than 45.8 µM; (ICRF193 200 nM) more than 45.8 µM.
As to `S=C(SSC(=S)N1CCCCC1)N1CCCCC1` [Dicyclopentamethylenethiuram disulfide], the IC50 cell viability was more than 45.8 µM (ICRF193 0 nM) and more than 45.8 µM (ICRF193 200 nM).
With `C=CCCCCCCCCC(=O)[O-].C=CCCCCCCCCC(=O)[O-].[Zn+2]` [ZINC UNDECYLENATE], the IC50 cell viability (ICRF193 0 nM) was more than 45.8 µM and the IC50 cell viability (ICRF193 200 nM) is more than 45.8 µM.
Turning to `OC(CCN1CCCCC1)(c1ccccc1)c1ccccc1` [Pridinol], the IC50 cell viability reads like this: (ICRF193 0 nM) more than 45.8 µM; (ICRF193 200 nM) more than 45.8 µM.
As to `CO/N=C(\C(=O)N[C@@H]1C(=O)N2C(C(=O)O)=C(CSc3cnns3)CS[C@H]12)c1csc(N)n1` [Cefuzonam hydrochloride], the IC50 cell viability by setting is: (ICRF193 0 nM) more than 45.8 µM; (ICRF193 200 nM) more than 45.8 µM.
`CCc1cc2c(cc1N1CCC(N3CCOCC3)CC1)C(C)(C)c1[nH]c3cc(C#N)ccc3c1C2=O` [Alectinib]: the IC50 cell viability (ICRF193 0 nM) was more than 45.8 µM and the IC50 cell viability (ICRF193 200 nM) was more than 45.8 µM.
With `O=C(O)Cc1cccc2ccccc12` [1-Naphthaleneacetic acid], the IC50 cell viability was more than 45.8 µM (ICRF193 0 nM) and more than 45.8 µM (ICRF193 200 nM).
The compound `c1ccc2sc(SN3CCOCC3)nc2c1` [N-Oxydiethylenebenzothiazole-2-sulfenamide] gave an IC50 cell viability (ICRF193 0 nM) of more than 45.8 µM and an IC50 cell viability (ICRF193 200 nM) of more than 45.8 µM.
As for `CCN(CC)CCCN(c1ccccc1)C1Cc2ccccc2C1` [Aprindine hydrochloride], the IC50 cell viability (ICRF193 0 nM) was more than 45.8 µM and the IC50 cell viability (ICRF193 200 nM) was more than 45.8 µM.
As for `COc1cc2nccc(Oc3ccc(NC(=O)NC4CC4)c(Cl)c3)c2cc1C(N)=O` [Lenvatinib], the IC50 cell viability (ICRF193 0 nM) is more than 45.8 µM and the IC50 cell viability (ICRF193 200 nM) was more than 45.8 µM.
Compound `Clc1ccc2c(c1)C(N1CCNCC1)=Nc1ccccc1O2` [Amoxapine] displayed an IC50 cell viability (ICRF193 0 nM) of more than 45.8 µM and an IC50 cell viability (ICRF193 200 nM) of more than 45.8 µM.
For `CNC(C)(C)Cc1ccccc1` [Mephentermine hemisulfate], the IC50 cell viability is more than 45.8 µM (ICRF193 0 nM) and more than 45.8 µM (ICRF193 200 nM).
For `OC[C@@H](O)[C@H](O)[C@H](O)[C@@H](O)CO` [D-Galactitol], the IC50 cell viability is, setting by setting: (ICRF193 0 nM) more than 45.8 µM; (ICRF193 200 nM) more than 45.8 µM.
Consider `CO/N=C(\C(=O)N[C@@H]1C(=O)N2C(C(=O)[O-])=C(C[n+]3ccn4ncccc43)CS[C@H]12)c1nsc(N)n1` [Cefozopran hydrochloride], for which the IC50 cell viability reads like this: (ICRF193 0 nM) more than 45.8 µM; (ICRF193 200 nM) more than 45.8 µM.
In the case of `CC(=O)Nc1ccc(O)cc1` [Acetaminophen], the IC50 cell viability by setting is: (ICRF193 0 nM) more than 45.8 µM; (ICRF193 200 nM) more than 45.8 µM.
On to `CCN(CC)CCOc1ccc2nc(N(C)C)sc2c1` [Diamthazole], for which the IC50 cell viability is more than 45.8 µM (ICRF193 0 nM) and more than 45.8 µM (ICRF193 200 nM).
Regarding `CN(C)CCCOc1nn(Cc2ccccc2)c2ccccc12` [Benzydamine hydrochloride], the IC50 cell viability is, setting by setting: (ICRF193 0 nM) more than 45.8 µM; (ICRF193 200 nM) more than 45.8 µM.
In the case of `Cc1c(NC(=O)c2cccnc2)c(=O)n(-c2ccccc2)n1C` [Nifenazone], the IC50 cell viability (ICRF193 0 nM) was more than 45.8 µM and the IC50 cell viability (ICRF193 200 nM) is more than 45.8 µM.
For `O=C(CCCN1CCC(C(=O)c2ccc(F)cc2)CC1)c1ccc(F)cc1` [Lenperone Hydrochloride], the IC50 cell viability was more than 45.8 µM (ICRF193 0 nM) and more than 45.8 µM (ICRF193 200 nM).
For the compound `CC(N)C(O)c1ccccc1` (stereo unspecified) [Phenylpropanolamine hydrochloride], the IC50 cell viability is, setting by setting: (ICRF193 0 nM) more than 45.8 µM; (ICRF193 200 nM) more than 45.8 µM.
Turning to `C[N+](C)(C)CCCCCC[N+](C)(C)C` [N,N,N,N',N',N'-Hexamethylhexane-1,6-diaminium], the IC50 cell viability runs as follows: (ICRF193 0 nM) more than 45.8 µM; (ICRF193 200 nM) more than 45.8 µM.
As for `CC(C)/N=c1\cc2n(-c3ccc(Cl)cc3)c3ccccc3nc-2cc1Nc1ccc(Cl)cc1` [Clofazimine], the IC50 cell viability was more than 45.8 µM (ICRF193 0 nM) and more than 45.8 µM (ICRF193 200 nM).
For the compound `CCCOc1cc(N)ccc1C(=O)OCCN(CC)CC` [PROPOXYCAINE HYDROCHLORIDE], the IC50 cell viability (ICRF193 0 nM) was more than 45.8 µM and the IC50 cell viability (ICRF193 200 nM) was more than 45.8 µM.
With `O=C(O)c1cc(=O)c2c(OCC(O)COc3cccc4oc(C(=O)O)cc(=O)c34)cccc2o1` [Sodium cromoglycate], the IC50 cell viability is, setting by setting: (ICRF193 0 nM) more than 45.8 µM; (ICRF193 200 nM) more than 45.8 µM.
Take `O=C(O)CNC(=O)c1ccccc1I` [2-Iodohippuric acid]: the IC50 cell viability was more than 45.8 µM (ICRF193 0 nM) and more than 45.8 µM (ICRF193 200 nM).
For the compound `C[C@]12C[C@H]3S[C@H]3C[C@@H]1CC[C@@H]1[C@@H]2CC[C@]2(C)[C@@H](O)CC[C@@H]12` [Epitiostanol], the IC50 cell viability is, setting by setting: (ICRF193 0 nM) more than 45.8 µM; (ICRF193 200 nM) more than 45.8 µM.
`COc1cc(Cc2cnc(N)nc2N)cc(OC)c1OC` [Trimethoprim] registered an IC50 cell viability (ICRF193 0 nM) of more than 45.8 µM and an IC50 cell viability (ICRF193 200 nM) of more than 45.8 µM.
Turning to `NC(=O)[C@@H]1CC[C@@H]2CN1C(=O)N2OS(=O)(=O)O` [Avibactam sodium], the IC50 cell viability is more than 45.8 µM (ICRF193 0 nM) and more than 45.8 µM (ICRF193 200 nM).
For the compound `CC(=O)CC/C=C(\C)CC/C=C(\C)CC/C=C(\C)CCC=C(C)C` [Teprenone], the IC50 cell viability is more than 45.8 µM (ICRF193 0 nM) and more than 45.8 µM (ICRF193 200 nM).
Turning to `Nc1ccc(O)c(C(=O)O)c1` [5-Aminosalicylic acid], the IC50 cell viability is, setting by setting: (ICRF193 0 nM) more than 45.8 µM; (ICRF193 200 nM) more than 45.8 µM.
As for `CC(C)(S)C(=O)N[C@@H](CS)C(=O)O` [Bucillamine], the IC50 cell viability was more than 45.8 µM (ICRF193 0 nM) and more than 45.8 µM (ICRF193 200 nM).
Regarding `COc1nc(N)nc2c1ncn2[C@@H]1O[C@H](CO)[C@@H](O)[C@@H]1O` [Nelarabine], the IC50 cell viability (ICRF193 0 nM) is more than 45.8 µM and the IC50 cell viability (ICRF193 200 nM) was more than 45.8 µM.
Regarding `CCCn1cnc2c1c(=O)n(CCCCC(C)=O)c(=O)n2C` [Propentofylline], the IC50 cell viability by setting is: (ICRF193 0 nM) more than 45.8 µM; (ICRF193 200 nM) more than 45.8 µM.
Regarding `Oc1ccc2c3c1O[C@H]1[C@@H](O)CC[C@@]4(O)[C@@H](C2)N(CC2CCC2)CC[C@]314` [Nalbuphine hydrochloride], the IC50 cell viability reads like this: (ICRF193 0 nM) more than 45.8 µM; (ICRF193 200 nM) more than 45.8 µM.
For `CN1CCN(C(c2ccccc2)c2ccc(Cl)cc2)CC1` (stereo unspecified) [Chlorcyclizine], the IC50 cell viability is more than 45.8 µM (ICRF193 0 nM) and more than 45.8 µM (ICRF193 200 nM).
As to `O[C@@H]1CO[C@H]2[C@@H]1OC[C@@H]2O` [Isosorbide], the IC50 cell viability was more than 45.8 µM (ICRF193 0 nM) and more than 45.8 µM (ICRF193 200 nM).
`Cc1ccc(N(CC2=NCCN2)c2cccc(O)c2)cc1` [Phentolamine mesilate]: the IC50 cell viability reads like this: (ICRF193 0 nM) more than 45.8 µM; (ICRF193 200 nM) more than 45.8 µM.
In the case of `CN(C)CCOc1ccccc1Cc1ccccc1` [Phenyltoloxamine citrate], the IC50 cell viability reads like this: (ICRF193 0 nM) more than 45.8 µM; (ICRF193 200 nM) more than 45.8 µM.
On to `CC(=O)Oc1ccccc1C(=O)O` [Aspirin], for which the IC50 cell viability is more than 45.8 µM (ICRF193 0 nM) and more than 45.8 µM (ICRF193 200 nM).
In the case of `CC(C)OC(=O)CCC/C=C\C[C@@H]1[C@@H](CC[C@@H](O)CCc2ccccc2)[C@H](O)C[C@@H]1O` [Latanoprost], the IC50 cell viability is, setting by setting: (ICRF193 0 nM) more than 45.8 µM; (ICRF193 200 nM) more than 45.8 µM.
On to `COc1ccc(CN(CCN(C)C)c2ccccn2)cc1` [Pyrilamine], for which the IC50 cell viability (ICRF193 0 nM) is more than 45.8 µM and the IC50 cell viability (ICRF193 200 nM) is more than 45.8 µM.
